Results from the supplement of paper PMC9386025.

Legend:
Assay in all cases: drug sensitivity score (DSS) (DSS (dimensionless)); higher = more sensitive (stronger drug response)
FIMM-PDC1 = patient-derived ovarian cancer cells; conditions: genetic perturbation: none (patient-derived cell culture)
Summary of the method: (§1)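 Cells, either patient-derived cultures or ovarian cancer cell lines given 100 ng/ml doxycycline for no less than three days to induce shRNA, went into 384-well plates at 1 000 – 1 500 per well over drugs pre-plated in five concentrations across a 10,000-fold range. The plates were held for three days at 37 °C with 5.0 % CO2. Cell viability was then taken from CellTiter-Glo luminescence on a PHERAstar FS. For each drug, a drug sensitivity score from its dose-response curve was obtained by a method described earlier.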

FIMM-PDC3 = patient-derived ovarian cancer cells; conditions: genetic perturbation: none (patient-derived cell culture)
Summary of the method: as §1

FIMM-PDC4 = patient-derived ovarian cancer cells; conditions: genetic perturbation: none (patient-derived cell culture)
Summary of the method: as §1

FIMM-PDC5 = patient-derived ovarian cancer cells; conditions: genetic perturbation: none (patient-derived cell culture)
Summary of the method: as §1

FIMM-PDC6 = patient-derived ovarian cancer cells; conditions: genetic perturbation: none (patient-derived cell culture)
Summary of the method: as §1

FIMM-PDC7 = patient-derived ovarian cancer cells; conditions: genetic perturbation: none (patient-derived cell culture)
Summary of the method: as §1

JHOS2 = test system: JHOS2
Summary of the method: as §1

Kuramochi = test system: Kuramochi
Summary of the method: as §1

OVSAHO = test system: OVSAHO
Summary of the method: as §1

[1] = genetic perturbation: DOX-induced PTK7 shRNA knockdown
[2] = genetic perturbation: DOX-induced control shRNA

SMILES | drug sensitivity score (FIMM-PDC1) | drug sensitivity score (FIMM-PDC3) | drug sensitivity score (FIMM-PDC4) | drug sensitivity score (FIMM-PDC5) | drug sensitivity score (FIMM-PDC6) | drug sensitivity score (FIMM-PDC7) | drug sensitivity score (JHOS2; [1]) | drug sensitivity score (JHOS2; [2]) | drug sensitivity score (Kuramochi; [1]) | drug sensitivity score (Kuramochi; [2]) | drug sensitivity score (OVSAHO; [1]) | drug sensitivity score (OVSAHO; [2])
CO[C@H]1C[C@@H]2CC[C@@H](C)[C@@](O)(O2)C(=O)C(=O)N2CCCC[C@H]2C(=O)O[C@H]([C@H](C)C[C@@H]2CC[C@@H](OCCO)[C@H](OC)C2)CC(=O)[C@H](C)/C=C(\C)[C@@H](O)[C@@H](OC)C(=O)[C@H](C)C[C@H](C)/C=C/C=C/C=C/1C [Everolimus] | < 0 | 2.7 | 5.3 | 8.3 | < 0 | 0.4 | < 0 | 3 | 4.1 | 2.2 | 0.9 | 6.2
O=C1c2c(O)ccc(O)c2C(=O)c2c(NCCNCCO)ccc(NCCNCCO)c21 [Mitoxantrone] | 4.55 | 6.9 | 5.1 | 6.6 | 4.8 | 3.4 | 5.5 | 7.6 | 2.7 | 2.7 | 5.1 | 3.8
CN(C)Cc1c(C(=O)NCCOc2ccc(C(=O)NO)cc2)oc2ccccc12 [Abexinostat] | 12.7 | 13.3 | 8.7 | 16.2 | 14.3 | 11.7 | 14.4 | 13.3 | 18.5 | 8.6 | 14.6 | 11.9
Oc1nc(-c2ccc(C(F)(F)F)cc2)nc2c1CSCC2 [XAV-939] | 1.1 | 1.5 | 1.6 | 6.3 | 4.1 | 10.8 | < 0 | 0.7 | 0.35 | 0.1 | 2.1 | 3
CON(C)C(=O)N1N=C(c2cc(F)ccc2F)S[C@@]1(CCCN)c1ccccc1 [Filanesib] | 6.65 | 10.7 | 12.3 | 17.4 | 6.6 | 2.9 | 9.2 | 3 | 10.3 | 1.1 | 7.8 | 6.8
O=C(NOCCO)c1ccc2cncn2c1Nc1ccc(I)cc1F [GDC-0623] | < 0 | 1.8 | 7.4 | 6.9 | < 0 | 9 | < 0 | 10 | 1.4 | 1.5 | 0.4 | 1.5
COc1ccc(-c2ccc3ncc4c(c3c2)n(-c2ccc(N3CCNCC3)c(C(F)(F)F)c2)c(=O)n4C)cn1 [NVP-BGT226] | 12.2 | 12.6 | 19.7 | 25.6 | 21.5 | 22.4 | 11 | 15 | 10.1 | 13.4 | 17.8 | 16.2
CCCCC(=O)OCC(=O)[C@]1(O)Cc2c(O)c3c(c(O)c2[C@@H](O[C@H]2C[C@H](NC(=O)C(F)(F)F)[C@H](O)[C@H](C)O2)C1)C(=O)c1c(OC)cccc1C3=O [Valrubicin] | 5.75 | 7.3 | 7.7 | 8 | 7.2 | 7 | 5.7 | 7.5 | 5.25 | 5.1 | 6.7 | 5.8
CN1CC[C@H](c2c(O)cc(O)c3c(=O)cc(-c4ccccc4Cl)oc23)[C@H](O)C1 [Alvocidib] | 16.6 | 15.8 | 17.4 | 22.2 | 16.7 | 20.4 | 14.4 | 14.5 | 16.6 | 14.8 | 16.7 | 14.7
CCN(CC)CCNC(=O)c1c(C)[nH]c(/C=C2\C(=O)Nc3ccc(-c4csc(-c5ccccc5)n4)cc32)c1C [Amcasertib] | < 0 | 2.6 | < 0 | 0.3 | < 0 | 5.3 | 8.4 | < 0 | 4.6 | < 0 | 1.6 | 0.8
COc1cc(Br)c(Nc2nc(-c3c(C)nc4ncccn34)cs2)c(Br)c1 [PTC-209] | 6.1 | 10 | 2.2 | 4.6 | 4.3 | 6.3 | 3.7 | 9.7 | 3 | 1.5 | 1.5 | 2.3
CO[C@H]1C[C@@H]2CC[C@@H](C)[C@@](O)(O2)C(=O)C(=O)N2CCCC[C@H]2C(=O)O[C@H]([C@H](C)C[C@@H]2CC[C@@H](OC(=O)C(C)(CO)CO)[C@H](OC)C2)CC(=O)[C@H](C)/C=C(\C)[C@@H](O)[C@@H](OC)C(=O)[C@H](C)C[C@H](C)/C=C/C=C/C=C/1C [Temsirolimus] | 2.25 | 2.8 | 8.7 | 12.2 | 5.7 | 4 | < 0 | 7.2 | 4.5 | 2.7 | 2.3 | 6.6
CN1CCN(c2cc(C(=O)Nc3ccc4c(c3)-c3c(c(C(N)=O)nn3-c3ccc(F)cc3)CC4)c(Cl)cn2)CC1 [PHA 408] | < 0 | 4.7 | 2.7 | 3.8 | 4.8 | 2.8 | 8.3 | < 0 | 2.75 | 2.3 | 7.3 | 2.8
Cc1ccc(NS(=O)(=O)c2cccc(C#N)c2)c2[nH]cc(C#N)c12 [E7820] | 2.9 | 18.3 | 3 | 6.4 | 5.9 | 12.2 | 9.6 | 9.5 | 2.4 | 1.5 | 3 | 1.1
CC(C)(C)C[C@@H]1N[C@@H](C(=O)N[C@H]2CC[C@H](O)CC2)[C@H](c2cccc(Cl)c2F)[C@]12C(=O)Nc1cc(Cl)ccc12 | < 0 | 4.9 | 8.1 | 15.8 | 10.5 | 5 | 4.8 | 0.1 | 1.9 | 0.8 | 2.7 | 1.2
CC(=O)OC[C@H]1O[C@@H]([S-])[C@H](OC(C)=O)[C@@H](OC(C)=O)[C@@H]1OC(C)=O.CCP(CC)CC.[Au+] [Auranofin] | 1.9 | 5.5 | 1.2 | 1.1 | 4 | 2.2 | 2.5 | 0.7 | 6.75 | 7.5 | 11 | 5.6
